What was measured:
α-synuclein fibrils [1] = molecular target: T1, α-synuclein fibrils (Homo sapiens, UniProt P37840); test: ThT saturation binding to α-synuclein fibrils; conditions: Tris buffer 30 mM pH 7.4
α-synuclein fibrils [2] = molecular target: T1, α-synuclein fibrils

Structure (SMILES)	Bmax of ThT binding to α-synuclein fibrils (α-synuclein fibrils [1])	Competition for ThT in the assay (specificity control) (α-synuclein fibrils [2])
Cc1ccc2c(c1)sc(-c1ccc(N(C)C)cc1)[n+]2C [ThT, Thioflavin T]	5672 afu	–
CCc1cc(Cl)c(OC)c(C(=O)NC[C@@H]2CCCN2CC)c1O.Cl [eticlopride hydrochloride]	–	no significant competition

Source: PMC3401268 (Bioorganic & medicinal chemistry, 2012)
